The source of these data is patent US5886165A, “Mixed backbone antisense oligonucleotides containing 2'-5'-ribonucleotide- and 3'-5'-deoxyribonucleotides segments” (Hybridon, Inc., priority 1996, dated 1999).

For one series, the system named is Spleen cells (CD1 mouse). In words: In vitro cell proliferation assay ([3H]thymidine). Type of series: cell-based. Particulars: at 10 μg/ml, 48 hrs. On the procedure: Cell proliferation assays were carried out as described earlier (Zhao et al., Biochem. Pharmacol 51, 173-182 (1996)). Spleen cells (4-5 week old male CD1 mouse, 20-22 gm, Charles River, Wilmington, Mass.) suspensions were prepared and plated in 96-well dishes at a density of 10^6 cells/ml in a final volume of 100 μl. The cells were incubated at 37° C. after adding 10 μl of oligonucleotides. After 44 hrs incubation, 1 μCi [3H]thymidine (Amersham, Arlington Heights, Ill.) was added and the cells were pulse-labeled for another 4 hrs. The cells were harvested by an automatic cell harvester and the filters were counted by a scintillation counter. All experiments were carried out in triplicate.

The test system of series [1] is citrated normal human donor plasma. In words: Clotting assay, activated partial thromboplastin time (aPTT). Conditions: compared to saline control; for 50% Prolongation of Clotting (aPTT): human plasma; for effect in coagulation assay (in words): up to 100 μg/ml dose. On the procedure:
The activated partial thromboplastin time (aPTT) was performed with citrated normal human donor plasma in duplicate on an Electra 1000C (Medical Laboratory Automation, Mount Vernon, N.Y.) according to recommended procedures using Actin FSL (Baxter Dade, Miami, Fla.) and 2.5 mM calcium to initiate clot formation, which was measured photometrically. Normal plasma aPTT values ranged from 27 to 39 sec. Data were calculated as 50% of prolongation as compared to the saline control.

Series [2] deals with snake venom phosphodiesterase. In words: Snake venom phosphodiesterase assay. Type of series: in vitro ADME. Particulars: 0.01 U, 21° C.; compared with SEQ ID NO 7. The method, then:
(§1) For snake venom phosphodiesterase assay, labeled oligonucleotide with cold oligonucleotide in a buffer (10 mM Tris, pH 8.0, 100 mM sodium chloride, and 10 mM magnesium chloride) was incubated with 0.01 U of snake venom phosphodiesterase (Boehringer-Mannheim, Indianapolis, Ind.) at 21° C. (final volume 40 μl). Aliquots were removed at different time intervals for electrophoretic gel analysis. For S1 nuclease assay, reactions were carried out as above but in […] sodium acetate, pH 5.0, 10 mM zinc acetate buffer and with 1.4 U of S1 nuclease (Gibco/BRL) incubated at 37° C. in a final volume of 50 μl. Aliquots were removed at different time intervals for electrophoretic gel analysis. Nuclease reactions were stopped by adding 5 μl of formamide gel loading buffer to each sample and heating at 90° C. for 5 min. All the samples were then run by 20% PAGE (7M urea) and visualized by autoradiography.

In series [3] the test system is DNA target strand SEQ ID NO 10 (25 base sequence from the initiation codon region of the HIV-1 gag mRNA). In words: Thermal melting study, duplex with DNA target strand. It counts as binding. Particulars: for Tm DNA: duplex with DNA SEQ ID NO 10, 10 mM disodium hydrogen phosphate pH 7.5, 100 mM NaCl, 2.0 μM total strands. On the procedure: (§2) Thermal denaturation studies were carried out by mixing MBOs with the DNA or RNA target strands in equimolar ratios in 10 mM disodium hydrogen phosphate, pH 7.5±0.1, 100 mM sodium chloride buffer, heated to 95° C. for 10 min, and allowed to come to room temperature slowly before being stored at 4° C. overnight. The final total concentration of the oligonucleotide strands was 2.0 μM. Spectrophotometric measurements were performed at 260 nm using 1 cm path length quartz cuvettes at a heating rate of 0.5° C./min on a Perkin-Elmer (Norwalk, Conn.) Lambda 2 Specotrometer attached to a thermal controller and a personal computer. Melting temperatures (Tm) taken as the temperature of half-dissociation and were obtained from first derivative plots. Precision in Tm values estimated from variance in two or three repeated experiments was ±0.5° C.

Series [4] is described as follows: Stability in DMEM cell culture medium containing 10% fetal calf serum. It counts as in vitro ADME. Particulars: DMEM with 10% non-heat-inactivated fetal calf serum, 37° C. On the procedure:
Oligonucleotides were labeled at the 5'-end with ^32 P using γ-^32 P-ATP (Amersham) and T4 polynucleotide kinase (Promega). Sambrook et al, Molecular Cloning, supra. Stability of the oligonucleotides in cell culture medium containing 10% fetal calf serum was tested by incubating a small amount of labeled oligonucleotide together with 100 ng of cold oligonucleotide in DMEM cell culture medium (Gibco/BRL, Grand Island, N.Y.) containing 10% non-heat-inactivated fetal calf serum (Gibco/BRL) at 37° C. in a final volume of 40 μl, and aliquots were removed at different times.

The subject of series [5] is RNA target strand SEQ ID NO 9 (25 base sequence from the initiation codon region of the HIV-1 gag mRNA). In words: Thermal melting study, duplex with RNA target strand. It counts as binding. Particulars: for Tm RNA: duplex with RNA SEQ ID NO 9, 10 mM disodium hydrogen phosphate pH 7.5, 100 mM NaCl, 2.0 μM total strands. The method, then: as §2
For a further series, the target named is T1, S1 nuclease (Aspergillus oryzae, UniProt P24021).
T1 construct: purchased Gibco/BRL
T1 sequence (P24021 21-287): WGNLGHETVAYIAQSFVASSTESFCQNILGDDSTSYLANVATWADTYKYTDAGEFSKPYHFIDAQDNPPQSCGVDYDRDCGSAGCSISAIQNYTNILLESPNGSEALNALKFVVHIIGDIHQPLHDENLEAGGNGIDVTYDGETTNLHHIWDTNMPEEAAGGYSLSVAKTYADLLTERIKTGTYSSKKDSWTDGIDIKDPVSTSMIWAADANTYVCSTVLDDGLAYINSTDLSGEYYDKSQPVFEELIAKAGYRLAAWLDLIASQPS
In words: S1 nuclease assay. It counts as in vitro ADME. Conditions: 1.4 U, 37° C., pH 5.0. On the procedure:
as §1

[25] = 2'-5' internucleotide linkage (phosphodiester) A value given as a limit tells only on which side of the number the result lay.

For the substance “SEQ ID NO 1: Phosphodiester MBO with three 2'-5'-linkages at each of the 5'- and 3'-ends, complementary to HIV-1 gag mRNA (antisense CUCTCGCACCCATCTCTCTCCUUCT; linkages [25]3 o18 [25]3 (s phosphorothioate, o phosphodiester), sugars by position and methylation of C not given here)”, in the series on Spleen cells (CD1 mouse), the “Stimulation Index (Lymphocyte Proliferation)” value is 0.67 ± 0.11. For the same substance, in series [1], the “50% Prolongation of Clotting (aPTT)” value is above 100.0 µg/mL and the “effect in coagulation assay (in words)” value is on record as “negligible effect”. In addition, in series [2], the “stability against snake venom phosphodiesterase (in words)” value was “slightly higher stability”. In addition, the “Tm DNA” value in series [3] is 60.6 °C. For the same substance, in series [3] (vs SEQ ID NO 7, DNA SEQ ID NO 10), the “Tm lower than duplex of control oligonucleotide SEQ ID NO 7, DNA target” value is “about 2.9 °C”. Further, the “stability in serum (in words)” value in series [4] was “intact up to four hours”. Also, in series [5], the “Tm RNA” value was 67.8 °C. Also, the “Tm lower than duplex of control oligonucleotide SEQ ID NO 7, RNA target” value in series [5] (vs SEQ ID NO 7, RNA SEQ ID NO 9) is around 2.7 °C. For the same substance, in the series with S1 nuclease, the “digestion by S1 nuclease (in words)” value was “quickly digested”.
Consider “SEQ ID NO 4: Phosphodiester MBO with three 2'-5' linkages at each end and an additional three in the middle (antisense CUCTCGCACCCAUCTCTCTCCUUCT; phosphodiester, three 2'-5' linkages at each end and three in middle, further chemistry not given here)”, for which, in series [1], the “50% Prolongation of Clotting (aPTT)” value is above 100.0 µg/mL and the “effect in coagulation assay (in words)” value was “negligible effect”. For the same substance, the “stability against snake venom phosphodiesterase (in words)” value in series [2] was “slightly higher stability”. In series [3] (destabilizing effect, DNA strand), the “ΔTm with the DNA strand” value was -10.7 °C. The “Tm DNA” value in series [3] was determined as 52.8 °C. In addition, the “stability in serum (in words)” value in series [4] is “intact up to four hours”. Also, the “ΔTm with the RNA strand” value in series [5] (destabilizing effect, RNA strand) is -6.0 °C. Moreover, the “Tm RNA” value in series [5] is 64.5 °C. The “digestion by S1 nuclease (in words)” value with S1 nuclease was “quickly digested”.
